Values quoted from earlier work, collected in US20230115209A1, “[…] PSILOCIN CONTAINING COMPOSITIONS AND METHODS OF USING AND MAKING THE SAME” (Orthogonal Thinker, Inc., priority 2020, published 2023).

Tests used:
[1] = trace fear conditioning
[2] = in vivo

In the case of CN(C)CCc1c[nH]c2cccc(OP(=O)(O)O)c12 [Psilocybin, 4-phosphoryloxy-N,N-dimethyl-tryptamine], the “extinction of the classically conditioned fear response” value [1] is given as “facilitates extinction of the classically conditioned fear response” and the “global neural signal diversity” value [2] is given as “increase global neural signal diversity”.
